Among the test systems are MCF7 breast; HOP-92 NSCLC; SK-MEL-28 melanoma; COLO 205 colon; U251 CNS; OVCAR-5 ovarian; M14 melanoma; A498 renal; SNB-19 CNS; SK-MEL-5 melanoma.
What all share (assay): NCI anticancer screen, dose series, 48 h

Molecules are shown by their SMILES. Where “and” joins values, the source holds several entries; their conditions need not be identical. Equal values may be shown once.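 Compound exposure: 48 hours, 5 concentrations, 96-well plates. GI50 = concentration required for 50% inhibition of growth. Definition used: TGI = concentration required for complete inhibition of growth.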

With `Cc1ccccc1/C=C1\CN(C(=O)OC(C)(C)C)C/C(=C\c2ccccc2C)C1=O`, the GI50 is 2.21 µM in the assay with MCF7 breast; 1.9 µM in the assay with HOP-92 NSCLC; 2.8 µM with SK-MEL-28 melanoma; 2.22 µM with COLO 205 colon; 1.82 µM in the assay on U251 CNS; 2.16 µM in the assay on OVCAR-5 ovarian. In addition, the GI50 in the assay on M14 melanoma was 2.97 µM; with A498 renal it was 3 µM; with SNB-19 CNS it was 1.81 µM; in the assay on SK-MEL-5 melanoma it was 2.12 µM. For the same molecule, the TGI in the assay on MCF7 breast was > 100 µM; with HOP-92 NSCLC, 5.75 µM; with SK-MEL-28 melanoma, 6.43 µM; in the assay with COLO 205 colon, 5.25 µM; in the assay with U251 CNS it was 3.95 µM; in the assay with OVCAR-5 ovarian it was 4.86 µM. In addition, the TGI was determined as 13.5 µM with M14 melanoma, 6.24 µM in the assay on A498 renal, 4.38 µM in the assay with SNB-19 CNS and 4.49 µM in the assay with SK-MEL-5 melanoma.

Consider `CCCCCCCCCC(CCCC(O)CC(=O)O)OC1OC(COC2OC(C)C(O)C(O)C2O)C(O)C(O)C1OC1OC(CO)C(O)C(O)C1OC1OC(C)C(O)C(O)C1O` (configuration not stated), for which the GI50 with MCF7 breast, with HOP-92 NSCLC, in the assay on SK-MEL-28 melanoma, in the assay on COLO 205 colon, with U251 CNS and in the assay with OVCAR-5 ovarian was > 40 µM throughout. Further, the GI50 with M14 melanoma, in the assay on A498 renal, with SNB-19 CNS and in the assay with SK-MEL-5 melanoma was > 40 µM in each case. In addition, the TGI in the assay with MCF7 breast, with HOP-92 NSCLC, in the assay with SK-MEL-28 melanoma, with COLO 205 colon, in the assay with U251 CNS and in the assay with OVCAR-5 ovarian was > 40 µM in each case. In addition, the TGI with M14 melanoma, in the assay on A498 renal, in the assay on SNB-19 CNS and in the assay with SK-MEL-5 melanoma was > 40 µM in each case.

`Nc1nc2c(c3cnccc13)C(c1cccc(Cl)c1)Cc1cnccc1-2` (configuration not stated): the GI50 in the assay on MCF7 breast was 0.292 µM; in the assay with HOP-92 NSCLC, 0.811 µM; with SK-MEL-28 melanoma it was 2.6 µM; with COLO 205 colon, 0.296 µM; in the assay on U251 CNS, 0.336 µM; with OVCAR-5 ovarian, 0.706 µM. For the same molecule, the GI50 in the assay on M14 melanoma is 0.297 µM; in the assay with A498 renal it was 0.275 µM; with SNB-19 CNS, 0.453 µM; in the assay with SK-MEL-5 melanoma, 0.398 µM. Moreover, the TGI in the assay on MCF7 breast was found to be 11.6 µM; in the assay on HOP-92 NSCLC, 18.2 µM; with SK-MEL-28 melanoma, 20.6 µM; in the assay with COLO 205 colon, 0.872 µM; in the assay on U251 CNS it was 1.08 µM; in the assay with OVCAR-5 ovarian, 18.6 µM. For the same molecule, the TGI in the assay on M14 melanoma came to 11 µM; in the assay with A498 renal, 0.852 µM; with SNB-19 CNS it was 12.4 µM; in the assay on SK-MEL-5 melanoma, 2.04 µM.

Consider `C=C1C(=O)OC2/C=C(\C)C3OC3/C=C(/C(=O)OC)C(OC(C)=O)C(OC(=O)C(C)(O)C(C)OC(C)=O)C12` (configuration not stated), for which the TGI is 2.67 µM in the assay on MCF7 breast; 4.1 µM with HOP-92 NSCLC; 6.14 µM in the assay on SK-MEL-28 melanoma; 8.97 µM in the assay with COLO 205 colon; 10.3 µM with U251 CNS; 10.7 µM in the assay on OVCAR-5 ovarian. Also, the TGI is 8.05 µM with M14 melanoma, 11.5 µM in the assay on A498 renal, 29.1 µM in the assay with SNB-19 CNS and 7.09 µM with SK-MEL-5 melanoma.

In the case of `Cn1c(=S)sc2nc3ccccc3n2c1=S`, the TGI was found to be 5.49 µM in the assay with MCF7 breast; 25.8 µM in the assay with HOP-92 NSCLC; 25.1 µM with SK-MEL-28 melanoma; 25.9 µM with COLO 205 colon; 25.1 µM in the assay on U251 CNS; 29.1 µM in the assay with OVCAR-5 ovarian. The TGI with M14 melanoma worked out at 18.7 µM; with A498 renal, 46.9 µM; in the assay with SNB-19 CNS, 33.6 µM; in the assay on SK-MEL-5 melanoma it was 27 µM.

For the molecule `N=c1ccn2c(n1)O[C@@H]1[C@@H](O)[C@H](CO)O[C@@H]12`, the GI50 in the assay on MCF7 breast was 0.234 µM; in the assay with HOP-92 NSCLC it was 9.94 µM; with SK-MEL-28 melanoma, 4.89 µM; in the assay on COLO 205 colon, 2.41 µM; in the assay on U251 CNS, 6.89 µM; with OVCAR-5 ovarian, 49.3 µM. Further, the GI50 was 0.428 µM in the assay on M14 melanoma, > 100 µM in the assay with A498 renal, 1.44 µM with SNB-19 CNS and 15.5 µM with SK-MEL-5 melanoma. Besides, the TGI in the assay on MCF7 breast, in the assay on HOP-92 NSCLC, in the assay on SK-MEL-28 melanoma, in the assay on COLO 205 colon, with U251 CNS and with OVCAR-5 ovarian was > 100 µM each time. For the same molecule, the TGI with M14 melanoma was 3.39 µM; in the assay on A498 renal, > 100 µM; in the assay with SNB-19 CNS it was > 100 µM; in the assay on SK-MEL-5 melanoma, > 100 µM.

As to `Cc1ccc(NC(=O)c2nc(S(C)=O)oc2-c2ccc(F)cc2)cc1Nc1nccc(-c2cccnc2)n1` (configuration not stated), the GI50 was 1.87 µM with MCF7 breast; 2.13 µM with HOP-92 NSCLC; 1.95 µM in the assay on SK-MEL-28 melanoma; 2.03 µM in the assay with COLO 205 colon; 1.98 µM with U251 CNS; 4.46 µM with OVCAR-5 ovarian. The GI50 with M14 melanoma is 1.99 µM; with A498 renal, 7.19 µM; in the assay with SNB-19 CNS it was 2.15 µM; in the assay on SK-MEL-5 melanoma it was 1.84 µM. Besides, the TGI in the assay on MCF7 breast stood at 3.86 µM; in the assay on HOP-92 NSCLC, 4.69 µM; in the assay on SK-MEL-28 melanoma, 3.97 µM; with COLO 205 colon, 4.41 µM; in the assay with U251 CNS, 3.57 µM; in the assay with OVCAR-5 ovarian it was 30.1 µM. Moreover, the TGI in the assay on M14 melanoma is 4.34 µM; in the assay on A498 renal, 20.2 µM; with SNB-19 CNS, 3.91 µM; in the assay with SK-MEL-5 melanoma, 3.59 µM.

Turning to `O=C(/C=C/c1cccnc1)c1ccccc1O`, the GI50 was 32.3 µM in the assay with MCF7 breast; 10.4 µM in the assay with HOP-92 NSCLC; 24.1 µM in the assay with SK-MEL-28 melanoma; 14.6 µM with COLO 205 colon; 22.2 µM in the assay with U251 CNS; 19 µM in the assay on OVCAR-5 ovarian. Also, the GI50 with M14 melanoma was 16.9 µM; in the assay on A498 renal it was 15.2 µM; with SNB-19 CNS, 20.3 µM; in the assay on SK-MEL-5 melanoma, 16.1 µM. In addition, the TGI with MCF7 breast was > 100 µM; with HOP-92 NSCLC, 32.5 µM; with SK-MEL-28 melanoma, 72.3 µM; in the assay on COLO 205 colon, 30.1 µM; in the assay with U251 CNS, 81.1 µM; with OVCAR-5 ovarian, 46.7 µM. The TGI in the assay on M14 melanoma was determined as 34.1 µM; in the assay with A498 renal it was 31.4 µM; in the assay with SNB-19 CNS, 62.5 µM; in the assay with SK-MEL-5 melanoma it was 31.1 µM.

As for `COc1cc(C2C(C#N)=C(N)Oc3cc(O)ccc32)cc(OC)c1OC` (configuration not stated), the GI50 with MCF7 breast is 0.334 µM; in the assay with HOP-92 NSCLC it was 0.301 µM; in the assay on SK-MEL-28 melanoma, 0.86 µM; in the assay with COLO 205 colon, 0.583 µM; in the assay on U251 CNS, 0.439 µM; with OVCAR-5 ovarian, 2.36 µM. The GI50 in the assay with M14 melanoma was 0.409 µM; in the assay on A498 renal it was 0.218 µM; in the assay on SK-MEL-5 melanoma, 0.37 µM. The TGI in the assay with MCF7 breast was > 100 µM; in the assay with HOP-92 NSCLC, 97.5 µM; in the assay with SK-MEL-28 melanoma, > 100 µM; with COLO 205 colon, 4.1 µM; in the assay on U251 CNS it was > 100 µM; in the assay on OVCAR-5 ovarian, > 100 µM. Moreover, the TGI with M14 melanoma is > 100 µM; in the assay on A498 renal it was 1.45 µM; in the assay on SNB-19 CNS, > 100 µM; with SK-MEL-5 melanoma, 26.7 µM.

Take `O=C1OC2C(O)C(=O)OC2C1O` (configuration not stated): the TGI in the assay on MCF7 breast, in the assay on HOP-92 NSCLC, with SK-MEL-28 melanoma, in the assay on COLO 205 colon, in the assay on U251 CNS and with OVCAR-5 ovarian was > 100 µM throughout. For the same molecule, the TGI in the assay on M14 melanoma, with A498 renal, in the assay on SNB-19 CNS and in the assay on SK-MEL-5 melanoma was > 100 µM throughout.

For the molecule `NC[C@@](O)(c1ccc(Cl)cc1)c1ccc(-c2cn[nH]c2)cc1`, the GI50 is 1.1 µM in the assay with MCF7 breast; 0.0445 µM and 0.0376 µM in the assay on HOP-92 NSCLC; 3.97 µM in the assay on SK-MEL-28 melanoma; 1.48 µM with COLO 205 colon; 1.49 µM in the assay with U251 CNS; 8.67 µM in the assay on OVCAR-5 ovarian. The GI50 with M14 melanoma is 2.34 µM; in the assay on A498 renal, 0.438 µM and 0.313 µM; in the assay on SNB-19 CNS it was 3.75 µM and 1.82 µM. The TGI in the assay on MCF7 breast is 2.54 µM; in the assay on HOP-92 NSCLC it was 1.85 µM and 1.45 µM; in the assay on SK-MEL-28 melanoma it was > 10 µM; in the assay with COLO 205 colon it was 3.18 µM; in the assay with U251 CNS, 3 µM; in the assay with OVCAR-5 ovarian, > 10 µM. Besides, the TGI in the assay with M14 melanoma is 5.98 µM; with A498 renal it was > 23.5 µM and 7.45 µM; in the assay with SK-MEL-5 melanoma it was > 100 µM.

Regarding `CC(C)Oc1ccc(C(=O)N[C@H](CNC(=O)CN(C)C)Cc2ccc(-c3cn4cccc([C@H](C)O)c4n3)cc2)cc1Cl`, the GI50 in the assay with MCF7 breast is 0.0366 µM; in the assay with HOP-92 NSCLC, 11.2 µM; in the assay with SK-MEL-28 melanoma, 4 µM; in the assay with COLO 205 colon, 0.0396 µM; in the assay on U251 CNS it was 0.0534 µM; in the assay on OVCAR-5 ovarian, 0.0771 µM. Besides, the GI50 with M14 melanoma was 0.0301 µM; in the assay with A498 renal it was 0.213 µM; in the assay on SNB-19 CNS it was 0.0625 µM; in the assay on SK-MEL-5 melanoma it was 0.33 µM. Further, the TGI with MCF7 breast was 19.5 µM; in the assay with HOP-92 NSCLC, 24.3 µM; in the assay with SK-MEL-28 melanoma, 20.3 µM; in the assay on COLO 205 colon, 13.2 µM; with U251 CNS, 19.2 µM; with OVCAR-5 ovarian, 22.2 µM. Moreover, the TGI amounted to 0.15 µM in the assay on M14 melanoma, 13.9 µM in the assay on A498 renal, 23.9 µM with SNB-19 CNS and 2.82 µM with SK-MEL-5 melanoma.

The record behind these values is PubChem BioAssay (NCI).
